Target: Transient receptor potential cation channel subfamily A member 1 (Homo sapiens, UniProt O75762)
Test: Fluorescence Assay: IC50s (effective concentration) of compounds on the human TRPA1 channel were determined using a Hamamatsu FDSS fluorescence plate reader. CHO cells expressing human TRPA1 were plated into 384-well plates, incubated overnight at 37° C., and loaded with BD calcium indicator dye for 1 hr at 37° C. followed by 15 minutes at room temperature. The assay buffer was Hank's Balanced Salt Solution (HBSS) containing 20 mM HEPES (pH readjusted to 7.4) along with 0.02% BSA.Following dye load and plate cool down, compounds were added to the cells using the FDSS while monitoring fluorescence to determine whether any of the test compounds have TRPA1 agonist activity. Plates were then incubated with compound for 20 minutes at room temperature prior to adding agonist. Following this incubation, […] cinnamaldehyde was added to all wells of the plate and block of this cinnamaldehyde induced calcium influx was measured.

Transient receptor potential cation channel subfamily A member 1, sequence (O75762 whole entry): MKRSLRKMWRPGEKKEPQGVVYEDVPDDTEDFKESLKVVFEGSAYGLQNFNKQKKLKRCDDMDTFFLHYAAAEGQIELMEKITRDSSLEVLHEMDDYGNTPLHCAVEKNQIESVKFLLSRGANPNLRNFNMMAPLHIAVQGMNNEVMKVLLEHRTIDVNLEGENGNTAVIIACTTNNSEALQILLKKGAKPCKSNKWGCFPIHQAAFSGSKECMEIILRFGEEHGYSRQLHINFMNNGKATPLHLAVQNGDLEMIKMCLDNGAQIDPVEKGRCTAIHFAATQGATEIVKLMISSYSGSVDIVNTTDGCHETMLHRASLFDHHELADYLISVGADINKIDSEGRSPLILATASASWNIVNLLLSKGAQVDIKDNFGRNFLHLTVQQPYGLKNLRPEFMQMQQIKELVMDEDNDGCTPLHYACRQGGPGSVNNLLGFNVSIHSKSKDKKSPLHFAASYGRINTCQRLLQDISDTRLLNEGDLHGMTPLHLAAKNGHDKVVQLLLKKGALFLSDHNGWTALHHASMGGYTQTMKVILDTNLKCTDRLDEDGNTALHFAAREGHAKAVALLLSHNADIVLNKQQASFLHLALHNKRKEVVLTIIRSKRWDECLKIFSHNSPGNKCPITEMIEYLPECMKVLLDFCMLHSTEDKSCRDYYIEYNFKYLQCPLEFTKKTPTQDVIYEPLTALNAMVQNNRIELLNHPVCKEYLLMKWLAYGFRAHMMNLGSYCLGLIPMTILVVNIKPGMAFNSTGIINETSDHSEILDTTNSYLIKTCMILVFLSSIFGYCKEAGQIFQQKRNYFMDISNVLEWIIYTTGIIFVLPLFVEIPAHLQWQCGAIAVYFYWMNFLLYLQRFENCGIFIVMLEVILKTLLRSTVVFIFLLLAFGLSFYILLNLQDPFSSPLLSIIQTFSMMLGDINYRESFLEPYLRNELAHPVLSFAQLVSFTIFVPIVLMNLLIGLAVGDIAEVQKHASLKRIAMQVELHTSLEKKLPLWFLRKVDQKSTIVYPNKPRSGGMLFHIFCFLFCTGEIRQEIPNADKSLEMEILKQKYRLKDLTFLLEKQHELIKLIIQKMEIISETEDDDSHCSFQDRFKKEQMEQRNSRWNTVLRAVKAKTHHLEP

- IC50: 13 nM
Structure (SMILES): CC(C)N(CC(=O)NCc1cc(C2=CCC(C(F)(F)F)CC2)ncn1)S(=O)(=O)c1ccc(F)cc1 (stereo unspecified)
